# Measured values from patent publication US10738101B2, “Method for selecting odor-controlling substance” (Kao Corporation, priority 2015, dated 2020).
# Tests used:
# [1] = target: T1, OR5AN1 (Homo sapiens, UniProt Q8NGI8); experiment: Luciferase reporter gene assay, OR5AN1-expressing HEK293 cells; assay type: cell-based; conditions: 0.3 μM to 100 μM, vs Mock cells, FIG. 3
# T1 construct: expressed in transfected cells; host or cells: HEK293
# T1 sequence (Q8NGI8 1-311): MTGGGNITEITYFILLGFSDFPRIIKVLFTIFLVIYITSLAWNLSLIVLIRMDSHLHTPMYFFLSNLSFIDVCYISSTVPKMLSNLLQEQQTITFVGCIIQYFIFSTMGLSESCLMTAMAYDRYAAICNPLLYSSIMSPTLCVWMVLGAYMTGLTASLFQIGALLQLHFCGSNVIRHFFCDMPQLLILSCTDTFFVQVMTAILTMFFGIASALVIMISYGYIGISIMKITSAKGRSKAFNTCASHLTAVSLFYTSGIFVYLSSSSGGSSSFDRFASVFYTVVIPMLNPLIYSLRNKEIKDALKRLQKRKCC
# Text: (§1) On the basis of sequence information registered in GenBank, genes respectively encoding 370 human olfactory receptors shown in Tables 1-1 and 1-2 and genes respectively encoding the human olfactory receptors OR5AN1, OR10G4 and OR9Q2 (respectively set forth in SEQ ID NOS: 1, 3 and 5) were cloned. Each of the genes was cloned by the PCR using human genomic DNA person (G1521: Promega) as a template. Each gene amplified by the PCR was incorporated into a pENTR vector (Invitrogen) in accordance with the instruction, and was recombined to NotI and AscI sites produced downstream from a Flag-Rho tag sequence on a pME18S vector by using NotI and AscI sites present on the pENTR vector.
# (§2) In 1) of Example 1, HEK293 cells on which the 370 human olfactory receptors were respectively expressed were produced. A reaction solution having a composition shown in Table 2 was prepared and allowed to stand still in a clean bench for 15 minutes, and the resultant was added by 4.4 μL per well in a 384-well plate (BioCoat). Subsequently, the HEK293 cells (20×10^4 cells/cm^2) were seeded by 40 μL per well, and the resultant was cultured for 24 hours in an incubator kept at 37° C. and 5% CO2.
# (§3) In 2) of Example 1 and Examples 2 and 3, HEK293 cells in which the human olfactory receptor OR5AN1, OR10G4, OR9Q2 or OR1A1 was expressed were produced. A reaction solution having a composition shown in Table 3 was prepared and allowed to stand still in a clean bench for 15 minutes, and the resultant was added by 10 μL per well in a 96-well plate (BioCoat). Subsequently, the HEK293 cells (3×10^5 cells/cm^2) were seeded by 90 μL per well, and the resultant was cultured for 24 hours in an incubator kept at 37° C. and 5% CO2. Cells obtained under conditions for not expressing the olfactory receptor (Mock) were also prepared to be used as a control, and were used similarly in an experiment.
# (§4) The olfactory receptor expressed on the HEK293 cells increases the intracellular cAMP amount by activating adenylate cyclase in conjugation with intracellular Gαs. In the measurement of odor response in this study, luciferase reporter gene assay for monitoring the increase of the intracellular cAMP amount as a luminescence value derived from a firefly luciferase gene (fluc2P-CRE-hygro) was employed. Besides, a fused Renilla luciferase (hRluc-CMV) gene was simultaneously transferred downstream of the CMV promoter, so as to be used as an internal standard for correcting the gene transfer efficiency or an error in the number of cells. For measuring the activity of the luciferase, Dual-Glo(™) Luciferase Assay System (Promega) was used, and the measurement was performed in accordance with the operation instruction of the product. Under each of various stimulation conditions, a value fLuc/hRluc obtained by dividing a firefly luciferase-derived luminescence value by a Renilla luciferase-derived luminescence value was calculated. A value obtained by dividing a value fLuc/hRluc induced by stimulation with an odorous substance by a value fLuc/hRluc of a cell not stimulated with the odorous substance was obtained as fold increase, which was used as an index of the response intensity. A dose-response curve was analyzed using Graph Pad Prism.
# (§5) The medium was removed from each of the cultures of the olfactory receptor expressing cells produced according to Reference Example 1, and an odorous substance (muscone, guaiacol or p-cresol) was added thereto. A DMEM medium (Nacalai) containing muscone or guaiacol was added to a 384-well plate containing the culture by 30 μL per well (to a final concentration of muscone of 100 μM and of guaiacol of 1 mM). Alternatively, a CD293 medium (Invitrogen) containing p-cresol was added to a 96-well plate containing the culture by 75 μL per well (to a final concentration of 1 mM). […]
# [2] = system: muscone odor; experiment: Sensory test of cross-adaptation, target odor muscone; assay type: in vivo, human; conditions: panelists, test sample smelled before target sample, FIG. 6A
# Protocol: (§6) The cross-adaptation effect induced by the odorous substance evaluated in Example 2 was estimated by a sensory test. A glass bottle (No. 11, manufactured by Hakuyo Glass Co., Ltd., capacity: 110 mL) was charged with a target odorous substance to be used as a target sample. As the target odorous substance, muscone, guaiacol or p-cresol was used. As the muscone, a cotton ball soaked with 1 mg of muscone was used. As the guaiacol and p-cresol, 1 mL of a mineral oil (Sigma-Aldrich) solution in a concentration of 10 ppm was used. In a similar manner, a glass bottle was charged with a test substance to be used as a test sample. As the test sample, 5 mg of an ethyl vanillin powder, or 1 mL of a mineral oil (Sigma-Aldrich) solution of p-cresyl acetate, p-cresyl isobutyrate or p-methyl quinoline prepared to a concentration of 1,000 ppm was used.
# (§7) The sensory test was performed by a single blind method by five to eight panelists. The target sample was first presented to each panelist, who was caused to replay on the odor intensity. Next, the test sample was presented for 2 minutes or until the odor could not be perceived. Thereafter, the target sample was presented again, and the panelist was caused to replay on the odor intensity. This series of operations was defined as one set, and the sensory test was carried out with four sets per day per panelist set as the upper limit. A recess of at least 10 minutes or more was provided between the sets.
# The panelist was caused to plot the estimated intensity of the target odor on a straight line of 9.5 cm with both ends respectively provided with criteria “No odor” and “Strong odor”. A distance (A) between the position of the target odor intensity plotted in the initial estimate and the end of “No odor”, and a distance (B) between the position of the target odor intensity plotted in the second estimate and the end of “No odor” were obtained, so as to calculate percentage odor intensity of the initial estimate [B/A*100−100]. […]
# [3] = target: T2, OR1A1 (Homo sapiens, UniProt Q9P1Q5); experiment: Luciferase reporter gene assay, OR1A1-expressing HEK293 cells; assay type: cell-based; conditions: 0.3 μM to 100 μM, vs Mock cells, FIG. 4
# T2 construct: expressed in transfected cells; host or cells: HEK293
# T2 sequence (Q9P1Q5 1-309): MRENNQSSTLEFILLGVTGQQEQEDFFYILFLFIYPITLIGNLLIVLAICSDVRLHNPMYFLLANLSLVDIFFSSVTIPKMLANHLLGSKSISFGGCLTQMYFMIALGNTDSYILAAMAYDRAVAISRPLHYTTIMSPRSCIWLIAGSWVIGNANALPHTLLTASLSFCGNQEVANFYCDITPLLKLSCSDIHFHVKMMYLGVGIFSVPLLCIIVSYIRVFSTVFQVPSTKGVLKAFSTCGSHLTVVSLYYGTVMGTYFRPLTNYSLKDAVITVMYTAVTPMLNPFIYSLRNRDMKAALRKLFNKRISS
# Text: as §1, §2
# In 2) of Example 1 and Examples 2 and 3, HEK293 cells in which the human olfactory receptor OR5AN1, OR10G4, OR9Q2 or OR1A1 was expressed were produced. […]
# The olfactory receptor expressed on the HEK293 cells increases the intracellular cAMP amount by activating adenylate cyclase in conjugation with intracellular Gαs. In the measurement of odor response in this study, luciferase reporter gene assay for monitoring the increase of the intracellular cAMP amount as a luminescence value derived from a firefly luciferase gene (fluc2P-CRE-hygro) was employed. […] Under each of various stimulation conditions, a value fLuc/hRluc obtained by dividing a firefly luciferase-derived luminescence value by a Renilla luciferase-derived luminescence value was calculated. […] A dose-response curve was analyzed using Graph Pad Prism. […]
# [4] = target: T3, OR10G4 (Homo sapiens, UniProt Q8NGN3); experiment: Luciferase reporter gene assay, OR10G4-expressing HEK293 cells; assay type: cell-based; conditions: for responsiveness of OR10G4 (fold increase): FIG. 5A, 5C
# T3 construct: expressed in transfected cells; host or cells: HEK293
# T3 sequence (Q8NGN3 1-311): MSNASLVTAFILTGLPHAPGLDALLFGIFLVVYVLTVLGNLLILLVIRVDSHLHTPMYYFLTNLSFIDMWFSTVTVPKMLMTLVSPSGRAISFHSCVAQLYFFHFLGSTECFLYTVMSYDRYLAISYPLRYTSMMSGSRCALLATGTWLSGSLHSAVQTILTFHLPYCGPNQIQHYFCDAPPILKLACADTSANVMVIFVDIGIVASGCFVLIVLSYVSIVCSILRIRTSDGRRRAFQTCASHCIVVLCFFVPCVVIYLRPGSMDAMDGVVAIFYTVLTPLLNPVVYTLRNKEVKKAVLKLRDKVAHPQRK
# Text: as §1, §2, §3
# as §4, with “For measuring the activity of the luciferase, Dual-Glo(™) Luciferase Assay System (Promega) was used, and the measurement was performed in accordance with the operation instruction of the product.” left out, “A value obtained by dividing a value fLuc/hRluc induced by stimulation with an odorous substance by a value fLuc/hRluc of a cell not stimulated with the odorous substance was obtained as fold increase, which was used as an index of the response intensity.” left out, “Prism. […]” for “Prism.”
# [5] = system: odor of guaiacol; experiment: Sensory test of cross-adaptation, target odor guaiacol; assay type: in vivo, human; conditions: panelists, test sample smelled before target sample, FIG. 6B
# Protocol: as §6
# as §7, with “A recess of at least 10 minutes or more was provided between the sets.” left out
# [6] = target: T4, OR9Q2 (Homo sapiens, UniProt Q8NGE9); experiment: Luciferase reporter gene assay, OR9Q2-expressing HEK293 cells; assay type: cell-based; conditions: for responsiveness of OR9Q2 (fold increase): FIG. 2, 5B, 5C
# T4 construct: expressed in transfected cells; host or cells: HEK293
# T4 sequence (Q8NGE9 1-314): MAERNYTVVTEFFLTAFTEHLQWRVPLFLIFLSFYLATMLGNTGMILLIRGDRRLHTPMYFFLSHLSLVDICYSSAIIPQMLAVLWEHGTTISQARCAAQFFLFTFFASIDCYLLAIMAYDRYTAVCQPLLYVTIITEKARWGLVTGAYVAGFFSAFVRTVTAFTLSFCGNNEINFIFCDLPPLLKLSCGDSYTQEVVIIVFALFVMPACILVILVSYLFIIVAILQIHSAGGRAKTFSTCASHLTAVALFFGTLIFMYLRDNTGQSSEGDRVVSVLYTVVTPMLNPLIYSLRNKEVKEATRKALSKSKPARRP
# Text: as §1, §2, §3, §4, §5
# [7] = system: odor of p-cresol; experiment: Sensory test of cross-adaptation, target odor p-cresol; assay type: in vivo, human; conditions: panelists, test sample smelled before target sample, FIG. 6C
# Protocol: as §6, §7
# The panelist was caused to plot the estimated intensity of the target odor on a straight line of 9.5 cm with both ends respectively provided with criteria “No odor” and “Strong odor”. A distance (A) between the position of the target odor intensity plotted in the initial estimate and the end of “No odor”, and a distance (B) between the position of the target odor intensity plotted in the second estimate and the end of “No odor” were obtained, so as to calculate percentage odor intensity of the initial estimate [B/A*100−100]. As this value is smaller, the intensity of the target odor perceived in the second estimate is suppressed stronger as compared with that in the initial estimate, namely, stronger cross-adaptation is induced. If this value is −100%, it means that the target odor was not perceived at all in the second estimate.
smiles,measurement,setting,value
"O=C1CCCCC=CCCCCCCCCCO1 [Ambrettolide, 17-oxacycloheptadec-6-en-1-one]",activation of OR5AN1 response (fold increase),[1],did not induce the response
same,cross-adaptation of muscone odor induced by test substance,[2],did not induce the cross-adaptation
CC/C=C\CCO [Cis-3-hexenol],activation of OR5AN1 response (fold increase),[1],did not induce the response
same,activation of OR1A1 response (fold increase),[3],activated
same,cross-adaptation of muscone odor induced by test substance,[2],did not induce the cross-adaptation
"O=C1CCCCCCCCCCCCCCO1 [Exaltolide (R), 16-oxacyclohexadecan-1-one]",activation of OR5AN1 response (fold increase),[1],activating the response
"O=C1CCCCCCC=CCCCCCCC1 [Globanone, cyclohexadec-8-en-1-one]",activation of OR5AN1 response (fold increase),[1],activating the response
"CC(C)(O)CCCC1=CCC(C=O)CC1 [Lyral (R), 4-(4-hydroxy-4-methyl-pentyl)-cyclohex-3-enecarbaldehyde]",activation of OR5AN1 response (fold increase),[1],did not induce the response
"CC1CC=CCCCCCCCCCC(=O)C1 (centres unmarked) [Muscenone delta, 3-methyl-5-cyclopentadecen-1-one]",activation of OR5AN1 response (fold increase),[1],activating the response
"Cc1c([N+](=O)[O-])c(C)c([N+](=O)[O-])c(C(C)(C)C)c1[N+](=O)[O-] [Musk xylol, 1-tert-butyl-3,5-dimethyl-2,4,6-trinitrobenzene]",activation of OR5AN1 response (fold increase),[1],activating the response
"CCOc1cc(C=O)ccc1O [ethyl vanillin, 3-ethoxy-4-hydroxybenzaldehyde]",responsiveness of OR10G4 (fold increase),[4],had responsiveness
same,cross-adaptation of guaiacol odor induced by test substance,[5],induced
"COc1ccccc1O [guaiacol, 2-methoxyphenol]",responsiveness of OR10G4 (fold increase),[4],had responsiveness
same,"responsiveness of OR10G4 among 370 olfactory receptors (response intensity, fold increase)","[4]; screen of 370 human olfactory receptors, guaiacol 1 mM, FIG. 1",highest responsiveness
"Cc1ccc(O)cc1 [p-cresol, p-Cresol]",responsiveness of OR9Q2 (fold increase),[6],have responsiveness
same,concentration dependency of OR9Q2 response,"[6]; different concentrations, FIG. 2",showed response to p-cresol dependently on the concentration
same,"responsiveness of OR9Q2 among 370 olfactory receptors (response intensity, fold increase)","[6]; screen of 370 human olfactory receptors, p-cresol 1 mM, FIG. 1",highest responsiveness
"CC(=O)Oc1ccc(C)cc1 [p-cresyl acetate, (4-methylphenyl)acetate]",responsiveness of OR9Q2 (fold increase),[6],have responsiveness
same,cross-adaptation of p-cresol odor induced by test substance,[7],induced
"Cc1ccc(OC(=O)C(C)C)cc1 [p-cresyl isobutyrate, (4-methylphenyl)2-methylpropanoate]",responsiveness of OR9Q2 (fold increase),[6],have responsiveness
same,cross-adaptation of p-cresol odor induced by test substance,[7],induced
"Cc1ccc2ncccc2c1 [p-methyl quinoline, 6-methyl quinoline]",responsiveness of OR9Q2 (fold increase),[6],have responsiveness
same,cross-adaptation of p-cresol odor induced by test substance,[7],induced
"OCCc1ccccc1 [phenyl ethyl alcohol (PEA), 2-phenylethanol]",activation of OR5AN1 response (fold increase),[1],did not induce the response
same,activation of OR1A1 response (fold increase),[3],activated
same,cross-adaptation of muscone odor induced by test substance,[2],did not induce the cross-adaptation
